The values that follow come from ChEMBL document CHEMBL4196029, “New MD2 inhibitors derived from curcumin with improved anti-inflammatory activity” (Eur J Med Chem, 2018).

In general, inhibition refers to the drop in the measured response relative to a control, in per cent.

Structures are written as SMILES. Activity calls are given as the source filed them. The calls are words filed in the database; no cut-off is given here.

For series [1], the system named is Peritoneal macrophage. Briefly: Anti-inflammatory activity in C57BL/6 mouse primary peritoneal macrophages assessed as inhibition of LPS-induced IL-6 secretion at 2.5 uM preincubated for 30 mins followed by LPS addition measured after 24 hrs by ELISA relative to control. It is filed as functional. Particulars: C57BL/6, Peritoneal macrophage. (In general: In an ELISA, binding on a coated surface is turned into a signal by an enzyme label.)

The subject of series [2] is Peritoneal macrophage. The experiment in a line: Anti-inflammatory activity in C57BL/6 mouse primary peritoneal macrophages assessed as inhibition of LPS-induced IL-6 secretion at 1 to 10 uM preincubated for 30 mins followed by LPS addition measured after 24 hrs by ELISA. It is filed as functional, cell-based.
In series [3] the test system is Peritoneal macrophage. Briefly: Anti-inflammatory activity in C57BL/6 mouse primary peritoneal macrophages assessed as inhibition of LPS-induced TNFalpha secretion at 1 to 10 uM preincubated for 30 mins followed by LPS addition measured after 24 hrs by ELISA. It counts as functional, cell-based.
For series [4], the system named is Peritoneal macrophage. Briefly: Anti-inflammatory activity in C57BL/6 mouse primary peritoneal macrophages assessed as inhibition of LPS-induced TNFalpha secretion at 10 uM preincubated for 30 mins followed by LPS addition measured after 24 hrs by ELISA relative to control. It is filed as functional. The conditions noted are these: for inhibition at 10 µM: C57BL/6, Peritoneal macrophage.

Series [5] deals with Peritoneal macrophage. The experiment in a line: Anti-inflammatory activity in C57BL/6 mouse primary peritoneal macrophages assessed as inhibition of LPS-induced IL-6 secretion at 10 uM preincubated for 30 mins followed by LPS addition measured after 24 hrs by ELISA relative to control. It is filed as functional. Particulars: for inhibition at 10 µM: C57BL/6, Peritoneal macrophage.

Series [6] relates to Peritoneal macrophage. The experiment in a line: Anti-inflammatory activity in C57BL/6 mouse primary peritoneal macrophages assessed as inhibition of LPS-induced TNFalpha secretion at 5 uM preincubated for 30 mins followed by LPS addition measured after 24 hrs by ELISA relative to control. It is filed as functional. Particulars: C57BL/6, Peritoneal macrophage.
A short description of series [7]: Chemical stability in pH 7.4 phosphate buffer at 20 uM measured at 5 mins time intervals for 25 mins by UV absorbance spectroscopic method. It is filed as physicochemical. The conditions noted are these: pH 7.4, 25 min.

As for `CCN1C/C(=C\c2ccc(F)cc2)C(=O)/C(=C/c2ccc(F)cc2)C1`, the inhibition at 2.5 µM in the series with Peritoneal macrophage [1] is greater than 50%. Moreover, the inhibition result in the series on Peritoneal macrophage [2] and in the series with Peritoneal macrophage [3] was “Active” throughout. Also, the inhibition at 10 µM in the series on Peritoneal macrophage [4] and in the series on Peritoneal macrophage [5] was greater than 80% each time. For the same compound, the inhibition at 5 µM with Peritoneal macrophage [6] is greater than 50%.

Consider `COc1cc(/C=C2\CSC/C(=C\c3cc(OC)c(OC)c(OC)c3)C2=O)cc(OC)c1OC`, for which the inhibition at 10 µM is 25% in the series on Peritoneal macrophage [4] and 60% in the series on Peritoneal macrophage [5].

As for `COc1ccc(/C=C2\COC/C(=C\c3ccc(OC)cc3)C2=O)cc1`, the inhibition result in the series on Peritoneal macrophage [4] and with Peritoneal macrophage [5] was “inactive” in each case.

Consider `CN1C/C(=C\c2ccccc2Br)C(=O)/C(=C/c2ccccc2Br)C1`, for which the inhibition at 2.5 µM in the series with Peritoneal macrophage [1] was greater than 50%. The inhibition entry with Peritoneal macrophage [2] and with Peritoneal macrophage [3] was “Active” in each case. Moreover, the inhibition at 10 µM in the series on Peritoneal macrophage [4] and in the series with Peritoneal macrophage [5] was greater than 80% in each case. Also, the Stability result in series [7] is on record as “Unstable”. The inhibition at 5 µM in the series on Peritoneal macrophage [6] was greater than 50%.

For `COc1ccccc1/C=C1\COC/C(=C\c2ccccc2OC)C1=O`, the inhibition result in the series on Peritoneal macrophage [4] and in the series with Peritoneal macrophage [5] was “Active” each time.

Consider `COc1cccc(/C=C2\COC/C(=C\c3cccc(OC)c3OC)C2=O)c1OC`, for which the inhibition entry in the series with Peritoneal macrophage [4] and in the series on Peritoneal macrophage [5] was “Active” in each case.

Turning to `COc1cc(/C=C/C(=O)CC(=O)/C=C/c2ccc(O)c(OC)c2)ccc1O` [CURCUMIN], the inhibition result in the series on Peritoneal macrophage [4] and with Peritoneal macrophage [5] was “Active” throughout. Also, the Stability entry in series [7] is recorded as “Unstable”.

For the compound `COc1ccc(/C=C2\COC/C(=C\c3ccc(OC)c(OC)c3)C2=O)cc1OC`, the inhibition entry with Peritoneal macrophage [4] and in the series on Peritoneal macrophage [5] was “inactive” throughout.

For the compound `O=C1/C(=C/c2ccccc2Br)COC/C1=C\c1ccccc1Br`, the inhibition entry with Peritoneal macrophage [4] and in the series with Peritoneal macrophage [5] was “inactive” in each case.

In the case of `CCN1C/C(=C\c2cccc(OC)c2OC)C(=O)/C(=C/c2cccc(OC)c2OC)C1`, in the series on Peritoneal macrophage [1], the inhibition at 2.5 µM is greater than 50%. The inhibition result with Peritoneal macrophage [2] and in the series on Peritoneal macrophage [3] was “Active” in each case. Further, the inhibition at 10 µM in the series with Peritoneal macrophage [4] and with Peritoneal macrophage [5] was greater than 80% in each case. The Stability entry in series [7] was “Stable”. Further, in the series on Peritoneal macrophage [6], the inhibition at 5 µM is greater than 50%.

Turning to `O=C1/C(=C/c2cccc(O)c2)COC/C1=C\c1cccc(O)c1`, in the series with Peritoneal macrophage [1], the inhibition at 2.5 µM was greater than 50%. Further, the inhibition result with Peritoneal macrophage [2] and with Peritoneal macrophage [3] was “Active” throughout. Besides, the inhibition at 10 µM with Peritoneal macrophage [4] and in the series with Peritoneal macrophage [5] was greater than 80% in each case. In addition, the Stability result in series [7] is reported as “Stable”. In addition, the inhibition at 5 µM in the series with Peritoneal macrophage [6] is greater than 50%.
